These results are taken from EP4613738A1, “LIPID HAVING AMIDE AND ESTER FUNCTIONAL GROUPS, AND METHOD FOR PRODUCING SAME” (Samyang Holdings Corporation, priority 2022, dated 2024).

A short description of data set [1]: Particle characteristics of the prepared formulation by particle size analyzer (Dynamic Light Scattering, DLS). The format is physicochemical. Particulars: mRNA formulation; lipid compound:DMG-PEG:DSPC:Cholesterol=50:1.5:10:38.5; N/P ratio 10; buffer exchanged to PBS. As to the method:
(§1) The required amounts of the raw materials were mixed in order to meet the N/P ratio (amine group of lipid/phosphate group of mRNA) of 10 and each compound of formulas A to V:DMG-PEG:DSPC:Cholesterol=50:1.5:10:38.5. Ethanol was added to the ethanol layer so that the molecular total of all raw materials was within 12.5 mM, and the aqueous phase and ethanol phase were mixed maintaining a volume ratio of 3:1. After the mixing, to reduce the total ethanol content, buffer exchange was performed as follows: The mixture solution was concentrated by centrifugation at 4,000 rpm to 1/3 using an Amicon-Ultra tube filter (Merk Millipore, UFC505096 or UFC805024, pore size: 50K, volume: 0.5 mL or 4 mL), then diluted with three times the volume of PBS and centrifuged to concentrate. This process was repeated six times to exchange the buffer.
(§2) The more concrete procedure is as follows: • 1) Two autoclaved tubes were prepared (tubes (A) and (B)). • 2) In tube (A), each compound of formulas A to V, DSPC, cholesterol and DMG-PEG in molar quantities calculated according to the experimental conditions were sequentially added and mixed by vortexing. • 3) In the ethanol phase, when necessary, ethanol was added so that the molecular total of all raw materials was within 12.5 mM. • 4) In tube (B), mRNA and 20 mM sodium acetate buffer (pH 4.6) (=prepared by diluting with 3M sodium acetate buffer to 20 mM and titrating to pH 4.6 using 1M HCl) were mixed. At that time, the ratio was calculated and added so that the aqueous phase was total three times the amount of the ethanol phase. • 5) Mixing of Tube (A) and Tube (B) was performed using a Microfluidics (Ignite, Precision Nanosystem) device. Microfluidics operating conditions were FRR (Flow Rate Ratio) of C:R=3:1 and TRR (Total Flow Rate) of 12 mL/min. • 6) The resulting mixture from step 5) was concentrated by centrifugation at 4,000 rpm to 1/3 using an Amicon-Ultra tube filter (50K), then diluted 3-fold with PBS and concentrated by centrifugation. This process was repeated 6 times for concentration to the desired volume.
(§3) • 1) For the prepared formulation, particle characteristics (i.e., Zeta-average particle size (Z-average), polydispersity index (PDI), and zeta-potential) were confirmed using a particle size analyzer (Dynamic Light Scattering, DLS), and the results are shown in Table 1 below. • 2) For the prepared formulation, mRNA encapsulation efficiency was confirmed through Ribo-green assay, and the results are shown in Table 1 below.

Data set [2] concerns mRNA. Kind of data set: mRNA encapsulation efficiency of the prepared formulation by Ribo-green assay. The format is physicochemical. The note with it: lipid compound:DMG-PEG:DSPC:Cholesterol=50:1.5:10:38.5, N/P ratio 10, buffer exchanged to PBS. As to the method: as §1, §2, §3

As for `CCCCCCC(CCCC)COC(=O)CCCCCNC(=O)CCN(C)CCCN(C)CCC(=O)NCCCCCC(=O)OCC(CCCC)CCCCCC` (centres unmarked) [Example 4], in data set [1], the “PDI (PI)” value turned out to be 0.231 ± 0.012, the Z-average was found to be 147.8 ± 0.979 nm and the Zeta-potential is listed as -7.87 ± 0.754 mV. In addition, in data set [2], the Encapsulation efficiency was more than 93.75%.

For the compound `CCCCCCC(CCCCCC)COC(=O)CCCCCNC(=O)CCN(C)CCCN(C)CCC(=O)NCCCCCC(=O)OCC(CCCCCC)CCCCCC` [Example 5], in data set [1], the “PDI (PI)” value is recorded as 0.156 ± 0.009, the Z-average was determined as 137.5 ± 1.364 nm and the Zeta-potential is recorded as -6.66 ± 0.365 mV. The Encapsulation efficiency in data set [2] is more than 96.9%.

With `CCCCOC(=O)CCCCCNC(=O)CCN(C)CCCN(C)CCC(=O)NCCCCCC(=O)OCCCC` [Example 6], in data set [1], the “PDI (PI)” value turned out to be 0.190 ± 0.011, the Z-average was found to be 125.9 ± 1.325 nm and the Zeta-potential is on record as -6.02 ± 2.949 mV. The Encapsulation efficiency in data set [2] is given as more than 87.5%.

With `CCCCCCCCCCC(CCCCCCCC)COC(=O)CCCCCNC(=O)CCN(C)CCCN(C)CCC(=O)NCCCCCC(=O)OCC(CCCCCCCC)CCCCCCCCCC` (centres unmarked) [Example 7], in data set [1], the “PDI (PI)” value amounted to 0.215 ± 0.018, the Z-average is 118.6 ± 2.099 nm and the Zeta-potential came to 2.04 ± 0.365 mV. In addition, the Encapsulation efficiency in data set [2] is more than 93.75%.

In the case of `CCCCCCC(CCCCCC)COC(=O)CCCCCCCNC(=O)CCN(C)CCCN(C)CCC(=O)NCCCCCCCC(=O)OCC(CCCCCC)CCCCCC` [Example 8], in data set [1], the “PDI (PI)” value is 0.188 ± 0.007, the Z-average turned out to be 110.3 ± 1.700 nm and the Zeta-potential is on record as 4.83 ± 0.301 mV. Further, the Encapsulation efficiency in data set [2] is more than 99.2%.

Take `CCCCCCCCC(CCCCCC)COC(=O)CCCCCNC(=O)CCN(C)CCCN(C)CCC(=O)NCCCCCC(=O)OCC(CCCCCC)CCCCCCCC` (centres unmarked) [Example 10]: in data set [1], the “PDI (PI)” value is reported as 0.171 ± 0.006, the Z-average was determined as 118.2 ± 1.473 nm and the Zeta-potential turned out to be 6.72 ± 0.073 mV. The Encapsulation efficiency in data set [2] is more than 94.1%.

`CCCCCCCCCCC(CCCCCCCC)COC(=O)CCCCCNC(=O)CCN(CCN)CCC(=O)NCCCCCC(=O)OCC(CCCCCCCC)CCCCCCCCCC` (centres unmarked) [Example 14]: in data set [1], the “PDI (PI)” value worked out at 0.166 ± 0.027, the Z-average worked out at 113.8 ± 0.502 nm and the Zeta-potential is reported as -10.39 ± 1.994 mV. The Encapsulation efficiency in data set [2] is more than 93.75%.

On to `CCCCCCC(CCCCCC)COC(=O)CCCCCCCNC(=O)CCN(CCN)CCC(=O)NCCCCCCCC(=O)OCC(CCCCCC)CCCCCC` [Example 15], for which, in data set [1], the “PDI (PI)” value is 0.186 ± 0.015, the Z-average came out at 127.0 ± 0.325 nm and the Zeta-potential is -0.40 ± 0.239 mV. Moreover, the Encapsulation efficiency in data set [2] is listed as more than 93.75%.

Turning to `CCCCCCCCCCCCC(CCCCCCCCCC)COC(=O)CCCCCNC(=O)CCN(CCN)CCC(=O)NCCCCCC(=O)OCC(CCCCCCCCCC)CCCCCCCCCCCC` (centres unmarked) [Example 16], in data set [1], the “PDI (PI)” value was 0.128 ± 0.015, the Z-average was determined as 128.9 ± 4.714 nm and the Zeta-potential is 0.50 ± 3.461 mV. The Encapsulation efficiency in data set [2] is more than 93.75%.

As to `CCCCCCCCCOC(=O)CCCCCNC(=O)CCN(CCCN(C)C)CCC(=O)NCCCCCC(=O)OCCCCCCCCC` [Example 17], in data set [1], the “PDI (PI)” value came out at 0.167 ± 0.009, the Z-average is 127.3 ± 0.955 nm and the Zeta-potential turned out to be 17.22 ± 3.314 mV. Besides, the Encapsulation efficiency in data set [2] is given as more than 93.75%.

Take `CCCCCCCCC(CCCCCC)COC(=O)CCCCCNC(=O)CCN(CCCN(C)C)CCC(=O)NCCCCCC(=O)OCC(CCCCCC)CCCCCCCC` (centres unmarked) [Example 18]: in data set [1], the “PDI (PI)” value is listed as 0.199 ± 0.007, the Z-average worked out at 118.6 ± 0.565 nm and the Zeta-potential came out at 10.96 ± 1.293 mV. For the same compound, in data set [2], the Encapsulation efficiency was more than 93.75%.

With `CCCCCCCCC(CCCCCC)COC(=O)CCCCCNC(=O)CCN(CCC(=O)NCCCCCC(=O)OCC(CCCCCC)CCCCCCCC)CCN1CCOCC1` (centres unmarked) [Example 19], in data set [1], the “PDI (PI)” value is on record as 0.150 ± 0.022, the Z-average was determined as 146.7 ± 1.226 nm and the Zeta-potential is -9.39 ± 0.137 mV. Further, the Encapsulation efficiency in data set [2] is more than 93.75%.

Consider `CCCCC/C=C\C/C=C\CCCCCCCCOC(=O)CCCCCNC(=O)CCN(C)CCCN(C)CCC(=O)NCCCCCC(=O)OCCCCCCCC/C=C\C/C=C\CCCCC` [Example 21], for which, in data set [1], the “PDI (PI)” value is given as 0.350 ± 0.009, the Z-average stood at 120.0 ± 4.251 nm and the Zeta-potential came to 4.43 ± 0.746 mV. Further, the Encapsulation efficiency in data set [2] is on record as more than 93.50%.

On to `CCCCCCCCC(OC(=O)CCCCCNC(=O)CCN(C)CCCN(C)CCC(=O)NCCCCCC(=O)OC(CCCCCCCC)C1CC1)C1CC1` (centres unmarked) [Example 22], for which, in data set [1], the “PDI (PI)” value was 0.3042 ± 0.026, the Z-average worked out at 121.0 ± 4.06 nm and the Zeta-potential turned out to be 3.56 ± 3.67 mV. In addition, the Encapsulation efficiency in data set [2] is more than 93.20%.
